Patent US20240245666A1, “DOSING REGIMENS” (Novartis AG, priority 2021, published 2024)
“And” between values parts separate entries of the source, which are not always exact repeats. Identical values can stand only once. Like-named read-outs stand apart in the source and are kept apart here.

Experiments:
[1] = In vitro flux study: dissolution and permeation of asciminib film-coated tablets through an artificial lipid membrane; assay type: in vitro ADME; details: 2×20 mg film-coated tablets; for flux rate (permeation through an artificial lipid membrane): 37° C.
Procedure: The donor compartment of a United States Pharmacopeia, Method II (USP II) dissolution apparatus (Distek corporation; New Jersey, United States) was filled with 900 mL maleate buffer containing either low concentrations of bile salts (imitating fasted conditions; Fasted State Simulated Intestinal Fluid [FaSSIF]; 3 mM taurocholate/taurodeoxycholate, 0.2 mM phospholipids/lysophospholipids, pH 5.8), high concentrations of bile salts (imitating fed intestinal conditions; Fed State Simulated Intestinal Fluid [FeSSIF]; 10 mM taurocholate/taurodeoxycholate, 2 mM phospholipids/lysophospholipids, 0.8/5.0 mM oleate/glycerol monoleate, pH 6.0), or no bile salts (control; pH 6.5). […] Two replicates per condition were performed.

[2] = initial asciminib tablet formulations, cited from earlier work
[3] = single agent, patients with CML; cited from earlier work
[4] = Phase I study, FE study group: asciminib under fasted, low-fat meal and high-fat meal conditions (PK and safety); details: for asciminib AUCinf, Gmean / asciminib AUCinf, Median / asciminib AUCinf, adjusted Gmean / asciminib AUClast, Gmean / asciminib AUClast, Median / asciminib AUClast, adjusted Gmean / asciminib Cmax, Gmean / asciminib Cmax, Median / asciminib Cmax, Range / asciminib Cmax, adjusted Gmean / asciminib T1/2, Range / asciminib Tmax, Range / reduction in asciminib exposure (AUCinf; AUCinf and AUClast) compared with fasted conditions / asciminib Tmax, Median: single 40 mg;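 also: healthy volunteers, open-label single-center study, PK parameters from individual plasma concentration-time profiles by non-compartmental analysis, 7-day washout between treatment periods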
[5] = clinical; details: human, plasma, oral, 40 mg
[6] = clinical; details: human, in vivo, 40 mg
[7] = Phase I study, DDI study group: asciminib with or without imatinib at steady state under low-fat meal conditions (PK and safety); details: imatinib 400 mg qd steady state alone (Day 12)
[8] = control buffer, no bile salts (pH 6.5)
[9] = fasted state buffer (FaSSIF, pH 5.8)
[10] = fed state buffer (FeSSIF, pH 6.0)

In the case of `O=C(Nc1ccc(OC(F)(F)Cl)cc1)c1cnc(N2CC[C@@H](O)C2)c(-c2ccn[nH]2)c1` [asciminib, N-[4-(Chlorodifluoromethoxy)phenyl]-6-[(3R)-3-hydroxypyrrolidin-1-yl]-5-(1H-pyrazol-5-yl)pyridine-3-carboxamide], the dissolution [1, 8] is reported as 82.3%, the “flux rate (permeation through an artificial lipid membrane)” value (shortened to “flux rate”) [1, 8] is reported as 2.66 µg/min and the dissolution [1, 9] is reported as 93.1%. For the same compound, the “flux rate” value [1, 9] was 1.45 µg/min, the dissolution [1, 10] was 94.2% and the “flux rate” value [1, 10] was 0.44 µg/min. The “decreased asciminib exposure compared with the fasted state” value ([2]; high-fat meal) was ~65% and 63-64%, the “decreased asciminib exposure compared with the fasted state” value ([2]; low-fat meal) was ~30% and 30-31% and the “maximum tolerated dose (not reached)” value [3] was > 200 mg twice daily. The “participants with at least 1 AE” value ([4]; FE group, 11 of 24 participants) was 45.8%, the “participants with oropharyngeal pain and rhinitis (each)” value ([4]; FE group, each n=2) was 8.3% and the “asciminib AUCinf, Gmean” value ([4]; fasted, n=24) was 5830 ng·h/mL. For the same compound, the “asciminib AUCinf, Median” value ([4]; fasted, n=24) was 5890 ng·h/mL, the “asciminib AUCinf, adjusted Gmean” value ([4]; fasted, n=24) was 5830 ng·h/mL and the “asciminib AUClast, Gmean” value ([4]; fasted, n=24) was 5730 ng·h/mL. For the same compound, the “asciminib AUClast, Median” value ([4]; fasted, n=24) was 5820 ng·h/mL, the “asciminib AUClast, adjusted Gmean” value ([4]; fasted, n=24) was 5730 ng·h/mL and the “asciminib Cmax, Gmean” value ([4]; fasted, n=24) was 550 ng/mL. For the same compound, the “asciminib Cmax, Median” value ([4]; fasted, n=24) was 572 ng/mL, the “asciminib Cmax, Range” value ([4]; fasted, n=24) was 280 to 1050 ng/mL and the “asciminib Cmax, adjusted Gmean” value ([4]; fasted, n=24) was 550 ng/mL. The “asciminib T1/2, Range” value ([4]; fasted, n=24) was 9.18 to 19.1 h, the “asciminib Tmax, Range” value ([4]; fasted, n=24) was 1.00 to 5.00 h and the “reduction in asciminib exposure (AUCinf; AUCinf and AUClast) compared with fasted conditions” value ([4]; high-fat meal) was 62.3% and 62-63%. For the same compound, the “asciminib AUCinf, Gmean” value ([4]; high-fat meal, n=24) was 2200 ng·h/mL, the “asciminib AUCinf, Median” value ([4]; high-fat meal, n=24) was 2040 ng·h/mL and the “asciminib AUCinf, adjusted Gmean” value ([4]; high-fat meal, n=24) was 2200 ng·h/mL. The “asciminib AUClast, Gmean” value ([4]; high-fat meal, n=24) was 2130 ng·h/mL, the “asciminib AUClast, Median” value ([4]; high-fat meal, n=24) was 1960 ng·h/mL and the “asciminib AUClast, adjusted Gmean” value ([4]; high-fat meal, n=24) was 2130 ng·h/mL. The “asciminib Cmax, Gmean” value ([4]; high-fat meal, n=24) was 175 ng/mL, the “asciminib Cmax, Median” value ([4]; high-fat meal, n=24) was 159 ng/mL and the “asciminib Cmax, Range” value ([4]; high-fat meal, n=24) was 82.2 to 423 ng/mL. For the same compound, the “asciminib Cmax, adjusted Gmean” value ([4]; high-fat meal, n=24) was 175 ng/mL, the “asciminib T1/2, Range” value ([4]; high-fat meal, n=24) was 8.81 to 18.1 h and the “asciminib Tmax, Median” value ([4]; high-fat meal, n=24) was 4.01 h. For the same compound, the “asciminib Tmax, Range” value ([4]; high-fat meal, n=24) was 1.00 to 8.00 h, the “reduction in asciminib exposure (AUCinf; AUCinf and AUClast) compared with fasted conditions” value ([4]; low-fat meal) was 30% and the “asciminib AUCinf, Gmean” value ([4]; low-fat meal, n=23) was 4130 ng·h/mL. For the same compound, the “asciminib AUCinf, Median” value ([4]; low-fat meal, n=23) was 4300 ng·h/mL, the “asciminib AUCinf, adjusted Gmean” value ([4]; low-fat meal, n=23) was 4080 ng·h/mL and the “asciminib AUClast, Gmean” value ([4]; low-fat meal, n=23) was 4060 ng·h/mL. For the same compound, the “asciminib AUClast, Median” value ([4]; low-fat meal, n=23) was 4270 ng·h/mL, the “asciminib AUClast, adjusted Gmean” value ([4]; low-fat meal, n=23) was 4010 ng·h/mL and the “asciminib Cmax, Gmean” value ([4]; low-fat meal, n=23) was 363 ng/mL. For the same compound, the “asciminib Cmax, Median” value ([4]; low-fat meal, n=23) was 365 ng/mL, the “asciminib Cmax, Range” value ([4]; low-fat meal, n=23) was 172 to 709 ng/mL and the “asciminib Cmax, adjusted Gmean” value ([4]; low-fat meal, n=23) was 359 ng/mL. The “asciminib T1/2, Range” value ([4]; low-fat meal, n=23) was 9.70 to 17.7 h, the “asciminib Tmax, Median” value ([4]; low-fat meal, n=23) was 3.00 h and the “asciminib Tmax, Range” value ([4]; low-fat meal, n=23) was 0.997 to 5.00 h. For the same compound, the half-life [5] was 13.5 h and the clearance [6] was 185 mL/min.
For `Cc1ccc(NC(=O)c2ccc(CN3CCN(C)CC3)cc2)cc1Nc1nccc(-c2cccnc2)n1` [imatinib], the “imatinib AUC0-24h, Gmean” value [7] was 33,600 ng×h/mL and the “imatinib AUClast, Gmean” value [7] was 33,600 ng×h/mL.
